Target: Dihydroorotate dehydrogenase (quinone), mitochondrial (Homo sapiens, UniProt Q02127)
Experiment: DHODH enzymatic assay
Protocol: To detect DHODH enzyme activities, dichloroindophenol (DCIP) is added as the final electron acceptor in the assay. DCIP can accept electrons from the reduced coenzyme Q generated in the assay, or from dihydroorotate (DHO) via FMN by binding presumably to the ubiquinone pocket. DCIP solutions are blue, with an intense absorbance around 600 nm, but becomes colorless upon reduction (J. Biol. Chem. (1986) 261, 11386). The assay buffer contained […], pH 7.5, 150 mM NaCl, 0.5 mM EDTA, and 0.1% Triton X-100 in MilliQ water. Substrate consisting of 20 mM DHO, 5mM CoQ6, and 1mM DCIP in assay buffer, initiates the reaction. The assay is run in end-point mode by quenching the reaction with the potent DHODH inhibitor brequinar. Absorbance measurements were obtained using the BMG Phera Star plate-reading spectrophotomer. Purified human DHODH was purchased from Proteros (cat. No. PR-0044). Chemicals were purchased from Sigma-Aldrich, Teknova, and Avanti Polar Lipids. Liquid handling was performed using Labcyte Echo and Formulatrix Tempest.

Dihydroorotate dehydrogenase (quinone), mitochondrial, sequence (Q02127 whole entry): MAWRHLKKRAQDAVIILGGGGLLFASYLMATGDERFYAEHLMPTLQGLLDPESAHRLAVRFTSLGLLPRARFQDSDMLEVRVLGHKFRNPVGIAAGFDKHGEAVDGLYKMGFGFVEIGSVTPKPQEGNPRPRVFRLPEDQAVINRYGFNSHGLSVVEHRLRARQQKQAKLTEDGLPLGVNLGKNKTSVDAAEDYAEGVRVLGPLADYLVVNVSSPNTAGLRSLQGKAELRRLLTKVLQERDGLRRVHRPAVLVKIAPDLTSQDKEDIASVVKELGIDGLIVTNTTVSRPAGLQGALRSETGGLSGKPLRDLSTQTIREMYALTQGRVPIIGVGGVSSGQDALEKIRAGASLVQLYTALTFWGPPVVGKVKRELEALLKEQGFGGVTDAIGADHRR

| Structure (SMILES) | IC50 [nM] |
| --- | --- |
| Cc1cn(-c2cc(O[C@@H](C)C(F)(F)F)c(C(=O)Nc3c(F)cccc3Cl)cc2F)nc1[C@@H](C)O (relative stereo) [WO2022070069, Example 1] | 0.48 |
| Cc1cn(-c2cc(O[C@@H](C)C(F)(F)F)c(C(=O)Nc3c(F)cccc3Cl)cc2F)nc1[C@H](C)O (relative stereo) [WO2022070069, Example 2] | 0.3 |
| Cc1cn(-c2cc(O[C@@H](C)C(F)(F)F)c(C(=O)Nc3c(C)n[nH]c3Cl)cc2F)nc1[C@@H](C)O (relative stereo) [WO2022070069, Example 4] | 0.22 |
| Cc1cn(-c2cc(O[C@@H](C)C(F)(F)F)c(C(=O)Nc3c(C)n[nH]c3Cl)cc2F)nc1[C@H](C)O (relative stereo) [WO2022070069, Example 5] | 0.26 |
| Cc1cn(-c2cc(O[C@@H](C)C(F)(F)F)c(C(=O)Nc3c(F)cccc3Cl)cc2F)nc1C(C)(C)O [WO2022070069, Example 3] | 0.5 |
| Cc1cn(-c2cc(O[C@@H](C)C(F)(F)F)c(C(=O)Nc3c(C)n[nH]c3Cl)cc2F)nc1C(C)(C)O [WO2022070069, Example 6] | 0.38 |

From BindingDB's records for patent WO2022070069 (JANSSEN BIOTECH, INC., 2022)
